Structures are written as SMILES.

This data set has as its system HeLa cells. Description: Cell proliferation. In kind it is cell-based. Particulars: tested concentrations 0 to 20 μM.

Take `COC[C@H]1OC(=O)c2coc3c2[C@@]1(C)C1=C(C3=O)[C@@H]2CCC(=O)[C@@]2(C)C[C@H]1OC(C)=O` [Wortmannin]: the “cytotoxicity in HeLa cells” value was “did not observe Wortmannin cytotoxicity”.
